Results reported in ChEMBL document CHEMBL2163297, “Discovery of novel PI3-kinase δ specific inhibitors for the treatment of rheumatoid arthritis: taming CYP3A4 time-dependent inhibition” (J Med Chem, 2012).

Experiments:
[1] = molecular target: T1, Phosphatidylinositol 4,5-bisphosphate 3-kinase catalytic subunit delta isoform (Homo sapiens, UniProt O00329)
T1 sequence (O00329 whole entry): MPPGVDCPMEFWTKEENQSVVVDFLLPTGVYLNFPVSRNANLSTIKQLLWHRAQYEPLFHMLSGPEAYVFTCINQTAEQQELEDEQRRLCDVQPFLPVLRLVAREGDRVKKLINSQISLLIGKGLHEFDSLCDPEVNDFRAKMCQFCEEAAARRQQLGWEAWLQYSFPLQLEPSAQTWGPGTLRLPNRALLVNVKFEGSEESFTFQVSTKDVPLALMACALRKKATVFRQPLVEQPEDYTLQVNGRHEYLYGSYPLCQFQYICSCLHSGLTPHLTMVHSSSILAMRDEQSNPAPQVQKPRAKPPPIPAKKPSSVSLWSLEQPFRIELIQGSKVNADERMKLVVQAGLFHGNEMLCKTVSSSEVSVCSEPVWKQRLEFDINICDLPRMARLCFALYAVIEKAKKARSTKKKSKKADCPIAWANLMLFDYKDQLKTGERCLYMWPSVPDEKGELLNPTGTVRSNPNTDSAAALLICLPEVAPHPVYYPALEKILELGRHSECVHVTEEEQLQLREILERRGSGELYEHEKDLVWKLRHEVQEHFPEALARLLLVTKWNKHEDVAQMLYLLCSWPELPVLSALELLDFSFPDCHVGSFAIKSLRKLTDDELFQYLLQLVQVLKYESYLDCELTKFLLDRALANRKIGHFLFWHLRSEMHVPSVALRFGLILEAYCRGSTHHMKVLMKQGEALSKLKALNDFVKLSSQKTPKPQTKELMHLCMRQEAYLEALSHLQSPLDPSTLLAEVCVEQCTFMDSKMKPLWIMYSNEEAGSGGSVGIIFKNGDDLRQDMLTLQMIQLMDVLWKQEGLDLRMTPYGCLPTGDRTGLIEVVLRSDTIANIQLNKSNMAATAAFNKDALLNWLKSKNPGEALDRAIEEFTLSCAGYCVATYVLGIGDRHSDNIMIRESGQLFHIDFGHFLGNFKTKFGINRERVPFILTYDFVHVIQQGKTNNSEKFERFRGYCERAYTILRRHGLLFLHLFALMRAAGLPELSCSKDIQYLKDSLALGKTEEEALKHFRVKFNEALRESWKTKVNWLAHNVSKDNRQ
Description: Binding affinity to PI3Kdelta after 30 mins by competitive fluorescence polarization assay

[2] = Selectivity ratio of IC50 for PI3Kalpha to IC50 for PI3Kdelta
[3] = Selectivity ratio of IC50 for PI3Kbeta to IC50 for PI3Kdelta
Cytochrome P450 3A4 [4] = molecular target: T2, Cytochrome P450 3A4 (Homo sapiens, UniProt P08684); test: (§1) Time dependent inhibition of CYP3A4 in human liver microsomes preincubated for 30 mins; type: ADME, Microsome
T2 sequence (P08684 whole entry): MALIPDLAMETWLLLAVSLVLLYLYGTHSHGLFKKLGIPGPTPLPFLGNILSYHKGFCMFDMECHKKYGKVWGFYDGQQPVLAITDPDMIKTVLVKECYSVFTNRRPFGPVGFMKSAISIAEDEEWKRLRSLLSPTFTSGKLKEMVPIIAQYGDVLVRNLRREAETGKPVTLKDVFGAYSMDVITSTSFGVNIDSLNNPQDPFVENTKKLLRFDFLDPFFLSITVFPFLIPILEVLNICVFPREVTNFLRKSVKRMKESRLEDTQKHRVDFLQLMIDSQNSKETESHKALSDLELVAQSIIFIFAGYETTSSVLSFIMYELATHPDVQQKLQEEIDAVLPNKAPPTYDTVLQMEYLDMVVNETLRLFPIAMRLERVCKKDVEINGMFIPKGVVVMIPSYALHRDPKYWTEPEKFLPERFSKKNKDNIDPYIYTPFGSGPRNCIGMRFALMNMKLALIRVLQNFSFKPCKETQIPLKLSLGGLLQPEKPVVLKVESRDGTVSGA

[5] = Selectivity ratio of IC50 for PI3Kgamma to IC50 for PI3Kdelta
[6] = molecular target: T1, Phosphatidylinositol 4,5-bisphosphate 3-kinase catalytic subunit delta isoform; test: Inhibition of human PI3Kdelta-mediated AKT phosphorylation at S473 in Ri-1 cells after 30 mins by electrochemiluminescence assay in presence of human serum albumin and alpha1 acid glycoprotein; type: cell-based
[7] = molecular target: T3, Phosphatidylinositol 4,5-bisphosphate 3-kinase catalytic subunit delta isoform (Homo sapiens) (UniProt O00329); test: Ratio of IC50 for human PI3Kdelta-mediated AKT phosphorylation at S473 in Ri-1 cells to IC50 for PI3Kdelta; type: cell-based
T3 sequence (whole entry): T1 sequence (O00329 whole entry)

[8] = Clearance in […] Wistar rat at 0.5 mg/kg, iv and 2 mg/kg, po; type: ADME, organism-based; settings: in vivo
Liver microsomes [9] = test: Metabolic stability in rat liver microsomes; type: ADME, Microsome
CYP3A4 = CYP3A4 (Homo sapiens, UniProt P08684); test: as §1; type: ADME, Microsome; settings: human, liver microsomes
Sequence of CYP3A4 (P08684 whole entry): as above

[10] = Volume of distribution at steady state in […] Wistar rat at 0.5 mg/kg, iv and 2 mg/kg, po; type: ADME, organism-based; settings: in vivo, read-out: Vdss
[11] = Oral bioavailability in […] Wistar rat at 2 mg/kg; type: ADME, organism-based; settings: in vivo
Liver microsomes [12] = test: Metabolic stability in human liver microsomes; type: ADME, Microsome
Cytochrome P450 3A4 [13] = molecular target: T2, Cytochrome P450 3A4; test: Inhibition of CYP3A4 in human liver microsomes; type: ADME, Microsome; settings: TDE = time-dependent effect

Row | IC50 [1] [nM] | Ratio IC50 [2] | Ratio IC50 [3] | IC50 (Cytochrome P450 3A4 [4]) [nM] | Ratio IC50 [5] | IC50 [6] [nM] | SMILES | other results
1 | 9.8 | 65 | – | – | – | – | CN(C)C1CCN(Cc2cc3nc(-c4n[nH]c5ccccc45)nc(N4CCOCC4)c3s2)CC1 | –
2 | 5.6 | 88 | – | – | – | – | CN(C)C1CCN(Cc2cc3nc(-c4c[nH]c5ccccc45)nc(N4CCOCC4)c3s2)CC1 | –
3 | 4.3 | 2 | 12 | > 10000 | 14 | 79 | CCc1nc2ccccc2n1-c1nc(N2CCOCC2)c2sc(CN3CCN(S(C)(=O)=O)CC3)cc2n1 | –
4 | 1.1 | 122 | 101 | < 100 | 715 | – | Cc1cc2c(-c3nc(N4CCOCC4)c4sc(CN5CCN(C(C)(C)C(N)=O)CC5)cc4n3)cccc2[nH]1 | –
5 | 10 | 54 | – | – | – | 420 | CN(C)C1CCN(Cc2cc3nc(-n4ccc5ccccc54)nc(N4CCOCC4)c3s2)CC1 | –
6 | 29 | 144 | – | – | – | 2000 | Cc1ncc2ccccc2c1-c1nc(N2CCOCC2)c2sc(CN3CCC(N(C)C)CC3)cc2n1 | –
7 | 3.5 | 86 | 46 | > 10000 | 2830 | – | CC(C)(C(N)=O)N1CCN(Cc2cc3nc(-c4nccc5[nH]ccc45)nc(N4CCOCC4)c3s2)CC1 | –
8 | 1.8 | 226 | – | 9100 | – | 29 | CN(C)C1CCN(Cc2cc3nc(-c4c(F)ccc5[nH]ccc45)nc(N4CCOCC4)c3s2)CC1 | Ratio IC50 [7]: 16
9 | 41 | 8 | – | – | – | 3400 | CN(C)C1CCN(Cc2cc3nc(-c4cccc5c4CC(=O)N5)nc(N4CCOCC4)c3s2)CC1 | –
10 | 134 | 18 | 75 | > 10000 | 75 | – | Cn1ccc2c(-c3nc(N4CCOCC4)c4sc(CN5CCN(C(C)(C)C(N)=O)CC5)cc4n3)cccc21 | –
11 | 16 | 39 | – | – | – | 3200 | CN(C)C1CCN(Cc2cc3nc(-n4ncc5ccccc54)nc(N4CCOCC4)c3s2)CC1 | –
12 | 2.3 | 30 | 103 | < 100 | 81 | – | CC(C)(C(N)=O)N1CCN(Cc2cc3nc(-c4ccnc5[nH]ccc45)nc(N4CCOCC4)c3s2)CC1 | –
13 | – | – | – | > 10000 | – | – | CCc1nc2ccccc2n1-c1nc(N2CCOCC2)c2sc(CN3CCC(C(C)(C)O)CC3)cc2n1 | –
14 | 6 | 96 | 137 | 600 | 350 | – | CC(C)(C(N)=O)N1CCN(Cc2cc3nc(-c4c(F)cc(F)c5[nH]ccc45)nc(N4CCOCC4)c3s2)CC1 | –
15 | 0.67 | 41 | 40 | 3200 | 243 | – | CC(C)(C(N)=O)N1CCN(Cc2cc3nc(-c4cncc5[nH]ccc45)nc(N4CCOCC4)c3s2)CC1 | –
16 | 3.1 | 9 | 54 | – | 153 | – | CC(C)(C(N)=O)N1CCN(Cc2cc3nc(-c4cccc5[nH]ncc45)nc(N4CCOCC4)c3s2)CC1 | –
17 | 9 | 42 | 69 | 7000 | 806 | – | Fc1ccc2[nH]ccc2c1-c1nc(N2CCOCC2)c2sc(CN3CCN4CCOC[C@H]4C3)cc2n1 | clearance [8]: 25.2 mL/min/kg; Stability (Liver microsomes [9]): 72.5%; Ki (Cytochrome P450 3A4 [4]): 78000 nM; kinact at 30 min (CYP3A4): 0.0008 s⁻¹; Vd [10]: 2.76 L/kg; bioavailability [11]: 75.5%; Stability (Liver microsomes [12]): 68.7%
18 | 4.3 | 17 | 111 | > 10000 | 134 | – | Cc1nc2ccccc2n1-c1nc(N2CCOCC2)c2sc(CN3CCN(C(C)(C)C(N)=O)CC3)cc2n1 | –
19 | 27 | 21 | – | – | – | 180 | CN(C)C1CCN(Cc2cc3nc(-c4cccc5nccn45)nc(N4CCOCC4)c3s2)CC1 | –
20 | 1.7 | 22 | 25 | – | 268 | – | CS(=O)(=O)N1CCN(Cc2cc3nc(-c4cccc5[nH]ccc45)nc(N4CCOCC4)c3s2)CC1 | inhibition (INH) (Cytochrome P450 3A4 [13]): tde
21 | 1.8 | 129 | 104 | – | 1440 | – | CC(C)(C(N)=O)N1CCN(Cc2cc3nc(-c4cccc5[nH]ccc45)nc(N4CCOCC4)c3s2)CC1 | inhibition (INH) (Cytochrome P450 3A4 [13]): tde
22 | 2.3 | 50 | 815 | > 10000 | 112 | 102 | CCc1nc2ccccc2n1-c1nc(N2CCOCC2)c2sc(CN3CCN(C4COC4)CC3(C)C)cc2n1 | –
23 | 3 | 194 | 102 | 1500 | 1880 | – | CC(C)(C(N)=O)N1CCN(Cc2cc3nc(-c4c(F)ccc5[nH]ccc45)nc(N4CCOCC4)c3s2)CC1 | clearance [8]: 31.3 mL/min/kg; Stability (Liver microsomes [9]): 90.8%; Ki (Cytochrome P450 3A4 [4]): 6600 nM; kinact at 30 min (CYP3A4): 0.00123 s⁻¹; Vd [10]: 2.38 L/kg; bioavailability [11]: 75.2%; Stability (Liver microsomes [12]): 82.5%
24 | 12 | 98 | – | – | – | 1300 | Cc1cccc(-c2nc(N3CCOCC3)c3sc(CN4CCC(N(C)C)CC4)cc3n2)c1 | –
25 | 23 | 14 | – | – | – | 970 | CN(C)C1CCN(Cc2cc3nc(-n4cnc5ccccc54)nc(N4CCOCC4)c3s2)CC1 | Ratio IC50 [7]: 42
26 | 2.7 | 29 | 252 | > 10000 | 233 | 374 | Cc1nc2ccccc2n1-c1nc(N2CCOCC2)c2sc(CN3CCC(N(C)C)CC3)cc2n1 | –
27 | 3.2 | 208 | 275 | 1200 | 691 | – | CC(C)(C(N)=O)N1CCN(Cc2cc3nc(-c4cc(C#N)cc5[nH]ccc45)nc(N4CCOCC4)c3s2)CC1 | –
28 | 0.48 | 77 | 80 | 510 | 566 | – | CC(C)(C(N)=O)N1CCN(Cc2cc3nc(-c4cc(F)cc5[nH]ccc45)nc(N4CCOCC4)c3s2)CC1 | –
